Source: ChEMBL document CHEMBL1201862, “PubChem BioAssay data set” (2004)
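A five-concentration, 48-hour dose response in 96-well plates underlies each endpoint, interpolated linearly between surrounding concentrations. The concentration for 50% growth inhibition is given as GI50.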 Calls of active or inactive are those of the source. No stated cut-off is given here; in the data, active = GI50 up to about 1.1 µM and inactive = higher.

Columns and labels:
Assay in all cases: NCI anticancer screen, dose series, 48 h
[1] = test system: XF498
[2] = test system: LXFL 529
[3] = test system: DMS-273
[4] = test system: HOP-18
[5] = test system: KM-20L2
[6] = test system: SNB-78
[7] = test system: M19-MEL
[8] = test system: DLD-1
[9] = test system: RXF 631

Structure (SMILES)	GI50 [1]	GI50 [2]	GI50 [3]	GI50 [4]	GI50 [5]	GI50 [6]	GI50 [7]	GI50 [8]	GI50 [9]
CN(C)c1ccc(/C=C2\C[N+](C)(C)C/C(=C\c3ccc(N(C)C)cc3)C2=O)cc1	> 10 µM (inactive)	7.55 µM (inactive)	5.25 µM (inactive)	37.1 µM (inactive)	12.9 µM (inactive)	> 49.8 µM (inactive)	13.4 µM (inactive)	35.9 µM (inactive)	
COc1cc2[nH]c3c(c2cc1OC)CCN[C@@]31CC[C@@]2(CC3c4c(cc(OC)c(O)c42)CCN3C)C[C@@H]1OC (stereo partly specified)	17.1 µM (inactive)	40.1 µM (inactive)	41.2 µM (inactive)	> 38.7 µM (inactive)	34 µM (inactive)	> 85.3 µM (inactive)	19.4 µM (inactive)	53 µM (inactive)	7.78 µM (inactive)
O=C1C=C(c2c(O)ccc3ccccc23)c2cc(O)ccc2C1=O	11.1 µM (inactive)	6.4 µM (inactive)	15.3 µM (inactive)	26.1 µM (inactive)	20 µM (inactive)	19.2 µM (inactive)	3.33 µM (inactive)	16.9 µM (inactive)	
CC(C(=O)n1c2ccccc2c2ccccc21)N(c1ccccc1)c1ccccc1 (stereo unspecified)		14.4 µM (inactive)	18.7 µM (inactive)		18.9 µM (inactive)	15.6 µM (inactive)	18.5 µM (inactive)	17.8 µM (inactive)	
CC1=C(C(=O)Nc2ccccc2)C(c2ccc([N+](=O)[O-])cc2)C(C(=O)Nc2ccccc2)=C(C)N1	15.1 µM (inactive)	17.4 µM (inactive)	24.4 µM (inactive)		18.3 µM (inactive)	33.8 µM (inactive)	16.6 µM (inactive)	26.6 µM (inactive)	21.2 µM (inactive)
O=C1OC(CC(=O)c2ccccc2Cl)C(Cl)=C1Cl (stereo unspecified)		> 100 µM (inactive)		> 100 µM (inactive)		33 µM (inactive)	> 100 µM (inactive)	> 100 µM (inactive)	62.4 µM (inactive)
CS/C(=N\C(=S)Nc1ccccc1)Nc1ccccc1			> 10 µM (inactive)		31 µM (inactive)	40.3 µM (inactive)	11 µM (inactive)		
COC1OC(C)C(OC(=O)C(C)(C)C)C(C)(O)C1O (stereo unspecified)	> 100 µM (inactive)	> 100 µM (inactive)	> 100 µM (inactive)	> 100 µM (inactive)	> 100 µM (inactive)	81.5 µM (inactive)	> 100 µM (inactive)	> 100 µM (inactive)	
CCN(CC)CC(C(=O)Nc1c(C)cccc1C)/C(C)=N/NC(N)=S (stereo unspecified)	> 100 µM (inactive)	> 100 µM (inactive)	> 100 µM (inactive)		> 100 µM (inactive)	> 100 µM (inactive)	> 100 µM (inactive)	> 100 µM (inactive)	> 100 µM (inactive)
Cc1nc2c(n1CC(C)C)C(=O)c1ccccc1C2=O	33.3 µM (inactive)	42.6 µM (inactive)	26.8 µM (inactive)		35.6 µM (inactive)	61.9 µM (inactive)	15.7 µM (inactive)	36.6 µM (inactive)	
Nc1nc(N)c(N=O)c(Nc2ccc(Br)cc2)n1	18.8 µM (inactive)	15.3 µM (inactive)	17.5 µM (inactive)	11.2 µM (inactive)	25.3 µM (inactive)	41.5 µM (inactive)	30.5 µM (inactive)	10.4 µM (inactive)	
COC(=O)C(CC(C)=O)CS(=O)(=O)CC(=O)C(=O)Nc1cccc([N+](=O)[O-])c1 (stereo unspecified)	55.6 µM (inactive)	> 100 µM (inactive)	> 100 µM (inactive)	> 100 µM (inactive)	> 100 µM (inactive)	> 100 µM (inactive)	> 100 µM (inactive)	> 100 µM (inactive)	> 100 µM (inactive)
COc1ccc(NS(=O)(=O)c2ccc(/N=C3\C=C(Nc4ccc(S(=O)(=O)Nc5ccc(OC)nn5)cc4)C(=O)c4ccccc43)cc2)nn1	22.6 µM (inactive)	22.2 µM (inactive)	14.9 µM (inactive)	16 µM (inactive)	17.9 µM (inactive)	57 µM (inactive)	16.9 µM (inactive)	18.5 µM (inactive)	
CC[C@](O)(C(=O)O)c1cc2n(c(=O)c1CO)Cc1cc3ccccc3nc1-2	0.0968 µM (active)	0.692 µM (active)	0.025 µM (active)	0.0436 µM (active)	0.0535 µM (active)		0.0336 µM (active)		0.084 µM (active)
O=C1OC(=O)C2C3CCC(O3)C12 (stereo unspecified)	> 100 µM (inactive)	> 100 µM (inactive)	> 100 µM (inactive)	> 100 µM (inactive)		> 100 µM (inactive)	> 100 µM (inactive)	> 100 µM (inactive)	
